Bridge positions count the residues as written; N and C are the ends. Square brackets hold non-standard residues; d marks the D form. Peptide text beside a SMILES is read from it. Phe(4-F) = N[C@@H](Cc1ccc(F)cc1)C(=O)O; 2Nal = N[C@@H](Cc1ccc2ccccc2c1)C(=O)O; Cit = NC(=O)NCCC[C@H](N)C(=O)O; Dab = NCC[C@H](N)C(=O)O
How the values were obtained:
[1] = biological target: CXCR4 (Homo sapiens, UniProt P61073); experiment: Ca2+-assay method 2 (Flexstation, SDF-1 induced calcium mobilization); assay type: cell-based; design: expressed in transfected cells; host or cells: mouse pre-B cell line 300-19; conditions: method 2 (Ex. 54-160), mouse pre-B cell line 300-19 with human CXCR4, 10 nM SDF-1; read-out: IC50 (nM) Ca^2+ assay
[2] = test system: human red blood cells (hRBC); experiment: Hemolysis; assay type: cell-based
Method in brief: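 Percent lysis taken as OD540 of peptide-treated sample over OD540 of the water/0.1% Triton X-100 full-lysis control, with PBS giving 0%. Peptides at 100 μM exposed to PBS-washed human RBCs (20% v/v) for 1 hour at 37° C. before centrifugation and 20-fold dilution of supernatant.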

[3] = in vitro; conditions: human
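Wherever GI50 is given: MTT reduction read as absorbance at 595 nm, blank-corrected and expressed as percent growth relative to the time-zero cell reading, triplicate wells per concentration.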

Sequence of CXCR4 (P61073 whole entry): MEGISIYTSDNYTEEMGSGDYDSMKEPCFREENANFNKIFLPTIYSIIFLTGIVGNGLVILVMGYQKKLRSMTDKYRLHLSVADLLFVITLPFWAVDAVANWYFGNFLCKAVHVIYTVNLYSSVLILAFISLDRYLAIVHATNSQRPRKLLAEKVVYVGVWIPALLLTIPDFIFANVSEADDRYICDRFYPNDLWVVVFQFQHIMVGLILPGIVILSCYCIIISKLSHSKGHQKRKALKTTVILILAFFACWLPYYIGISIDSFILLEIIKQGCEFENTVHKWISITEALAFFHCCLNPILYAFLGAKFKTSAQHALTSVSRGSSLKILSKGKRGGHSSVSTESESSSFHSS

Compound	IC50 [1]	Hemolysis at 100 μM [2]	GI50 at 48 h [3]
N=C(N)NCCC[C@@H]1NC(=O)[C@@H]2CSSC[C@H](NC(=O)[C@H](Cc3ccc4ccccc4c3)NC(=O)[C@H](CCCNC(=N)N)NC(=O)[C@H](CCCNC(=N)N)NC(=O)[C@H]3CCCN3C(=O)CNC1=O)C(=O)N[C@@H](Cc1ccc(O)cc1)C(=O)N[C@@H](CCC(N)=O)C(=O)N[C@@H](CCCCN)C(=O)N1CCC[C@@H]1C(=O)N1CCC[C@H]1C(=O)N[C@@H](Cc1ccc(O)cc1)C(=O)N[C@@H](CCCNC(=N)N)C(=O)N[C@@H](CC(=O)O)C(=O)N2 [Ex. 93] (cyclo(YRDCRG[dP]RR[2Nal]CYQK[dP]P); disulfide 4-11)	4.3 nM	0.2%	> 100 µM
N=C(N)NCCC[C@@H]1NC(=O)[C@@H]2CSSC[C@H](NC(=O)[C@H](Cc3ccc4ccccc4c3)NC(=O)[C@H](CCCNC(=N)N)NC(=O)[C@H](CCCNC(=N)N)NC(=O)[C@H]3CCCN3C(=O)CNC1=O)C(=O)N[C@@H](Cc1ccc(O)cc1)C(=O)N[C@@H](CCC(N)=O)C(=O)N[C@@H](CCCCN)C(=O)N1CCC[C@@H]1C(=O)N1CCC[C@H]1C(=O)N[C@@H](Cc1ccc(O)cc1)C(=O)N[C@@H](CCCNC(=N)N)C(=O)N[C@@H](CCCCN)C(=O)N2 [Ex. 94] (cyclo(YRKCRG[dP]RR[2Nal]CYQK[dP]P); disulfide 4-11)	2.5 nM	0.2%	45 µM
C[C@@H]1NC(=O)[C@H](CCCNC(=N)N)NC(=O)[C@H](Cc2ccc(O)cc2)NC(=O)[C@@H]2CCCN2C(=O)[C@H]2CCCN2C(=O)[C@H](CCCCN)NC(=O)[C@H](CCC(N)=O)NC(=O)[C@H](Cc2ccc(O)cc2)NC(=O)[C@@H]2CSSC[C@H](NC1=O)C(=O)N[C@@H](CCCNC(=N)N)C(=O)NCC(=O)N1CCC[C@@H]1C(=O)N[C@@H](CCCNC(=N)N)C(=O)N[C@@H](CCCNC(=N)N)C(=O)N[C@@H](Cc1ccc3ccccc3c1)C(=O)N2 [Ex. 95] (cyclo(YRACRG[dP]RR[2Nal]CYQK[dP]P); disulfide 4-11)	2.9 nM	0.1%	41 µM
N=C(N)NCCC[C@@H]1NC(=O)[C@@H]2CSSC[C@H](NC(=O)[C@H](Cc3ccc4ccccc4c3)NC(=O)[C@H](CCCNC(=N)N)NC(=O)[C@H](CCCNC(=N)N)NC(=O)[C@H]3CCCN3C(=O)CNC1=O)C(=O)N[C@@H](Cc1ccc(O)cc1)C(=O)N[C@@H](CCC(N)=O)C(=O)N[C@@H](CCCCN)C(=O)N1CCC[C@@H]1C(=O)N1CCC[C@H]1C(=O)N[C@@H](Cc1ccc(O)cc1)C(=O)N[C@@H](CCCNC(=N)N)C(=O)N[C@@H](CO)C(=O)N2 [Ex. 96] (cyclo(YRSCRG[dP]RR[2Nal]CYQK[dP]P); disulfide 4-11)	3 nM	1%	69 µM
CC(C)C[C@@H]1NC(=O)[C@H](CCCNC(=N)N)NC(=O)[C@H](Cc2ccc(O)cc2)NC(=O)[C@@H]2CCCN2C(=O)[C@H]2CCCN2C(=O)[C@H](CCCCN)NC(=O)[C@H](CCC(N)=O)NC(=O)[C@H](Cc2ccc(O)cc2)NC(=O)[C@@H]2CSSC[C@H](NC1=O)C(=O)N[C@@H](CCCNC(=N)N)C(=O)NCC(=O)N1CCC[C@@H]1C(=O)N[C@@H](CCCNC(=N)N)C(=O)N[C@@H](CCCNC(=N)N)C(=O)N[C@@H](Cc1ccc3ccccc3c1)C(=O)N2 [Ex. 97] (cyclo(YRLCRG[dP]RR[2Nal]CYQK[dP]P); disulfide 4-11)	4.3 nM	0.8%	44 µM
CC(C)[C@@H]1NC(=O)[C@H](CCCNC(=N)N)NC(=O)[C@H](Cc2ccc(O)cc2)NC(=O)[C@@H]2CCCN2C(=O)[C@H]2CCCN2C(=O)[C@H](CCCCN)NC(=O)[C@H](CCC(N)=O)NC(=O)[C@H](Cc2ccc(O)cc2)NC(=O)[C@@H]2CSSC[C@H](NC1=O)C(=O)N[C@@H](CCCNC(=N)N)C(=O)NCC(=O)N1CCC[C@@H]1C(=O)N[C@@H](CCCNC(=N)N)C(=O)N[C@@H](CCCNC(=N)N)C(=O)N[C@@H](Cc1ccc3ccccc3c1)C(=O)N2 [Ex. 98] (cyclo(YRVCRG[dP]RR[2Nal]CYQK[dP]P); disulfide 4-11)	3.9 nM	1%	41 µM
N=C(N)NCCC[C@@H]1NC(=O)[C@@H]2CSSC[C@H](NC(=O)[C@H](Cc3ccc4ccccc4c3)NC(=O)[C@H](CCCNC(=N)N)NC(=O)[C@H](CCCNC(=N)N)NC(=O)[C@H]3CCCN3C(=O)CNC1=O)C(=O)N[C@@H](Cc1ccc(O)cc1)C(=O)N[C@@H](CCC(N)=O)C(=O)N[C@@H](CCCCN)C(=O)N1CCC[C@@H]1C(=O)N1CCC[C@H]1C(=O)N[C@@H](Cc1ccc(O)cc1)C(=O)N[C@@H](CCCNC(=N)N)C(=O)N[C@@H](Cc1ccc(F)cc1)C(=O)N2 [Ex. 99] (cyclo(YR[Phe(4-F)]CRG[dP]RR[2Nal]CYQK[dP]P); disulfide 4-11)	4.2 nM	1.1%	40 µM
CSCC[C@@H]1NC(=O)[C@H](CCCNC(=N)N)NC(=O)[C@H](Cc2ccc(O)cc2)NC(=O)[C@@H]2CCCN2C(=O)[C@H]2CCCN2C(=O)[C@H](CCCCN)NC(=O)[C@H](CCC(N)=O)NC(=O)[C@H](Cc2ccc(O)cc2)NC(=O)[C@@H]2CSSC[C@H](NC1=O)C(=O)N[C@@H](CCCNC(=N)N)C(=O)NCC(=O)N1CCC[C@@H]1C(=O)N[C@@H](CCCNC(=N)N)C(=O)N[C@@H](CCCNC(=N)N)C(=O)N[C@@H](Cc1ccc3ccccc3c1)C(=O)N2 [Ex. 100] (cyclo(YRMCRG[dP]RR[2Nal]CYQK[dP]P); disulfide 4-11)	7 nM	0.8%	43 µM
N=C(N)NCCC[C@@H]1NC(=O)[C@@H]2CSSC[C@H](NC(=O)[C@H](Cc3ccc4ccccc4c3)NC(=O)[C@H](CCCNC(=N)N)NC(=O)[C@H](CCCNC(=N)N)NC(=O)[C@H]3CCCN3C(=O)CNC1=O)C(=O)N[C@@H](Cc1ccc(O)cc1)C(=O)N[C@@H](CCCNC(N)=O)C(=O)N[C@@H](CCC(=O)O)C(=O)N1CCC[C@@H]1C(=O)N1CCC[C@H]1C(=O)N[C@@H](Cc1ccc(O)cc1)C(=O)N[C@@H](CCCNC(=N)N)C(=O)N[C@@H](CCCNC(N)=O)C(=O)N2 [Ex. 103] (cyclo(YR[Cit]CRG[dP]RR[2Nal]CY[Cit]E[dP]P); disulfide 4-11)	18.3 nM	0.2%	42 µM
C[C@@H](O)[C@@H]1NC(=O)[C@H](CCCNC(=N)N)NC(=O)[C@H](Cc2ccc(O)cc2)NC(=O)[C@@H]2CCCN2C(=O)[C@H]2CCCN2C(=O)[C@H](CCCCN)NC(=O)[C@H](CCC(N)=O)NC(=O)[C@H](Cc2ccc(O)cc2)NC(=O)[C@@H]2CSSC[C@H](NC1=O)C(=O)N[C@@H](CCCNC(=N)N)C(=O)NCC(=O)N1CCC[C@@H]1C(=O)N[C@@H](CCN)C(=O)N[C@@H](CCCNC(=N)N)C(=O)N[C@@H](Cc1ccc3ccccc3c1)C(=O)N2 [Ex. 104] (cyclo(YRTCRG[dP][Dab]R[2Nal]CYQK[dP]P); disulfide 4-11)	7.4 nM	0%	71 µM
N=C(N)NCCC[C@@H]1NC(=O)[C@@H]2CSSC[C@H](NC(=O)[C@H](Cc3c[nH]c4ccccc34)NC(=O)[C@H](CCCNC(=N)N)NC(=O)[C@H](CCCNC(=N)N)NC(=O)[C@H]3CCCN3C(=O)CNC1=O)C(=O)N[C@@H](Cc1ccc(O)cc1)C(=O)N[C@@H](CCCNC(N)=O)C(=O)N[C@@H](CCCCN)C(=O)N1CCC[C@@H]1C(=O)N1CCC[C@H]1C(=O)N[C@@H](Cc1ccc(O)cc1)C(=O)N[C@@H](Cc1c[nH]cn1)C(=O)N[C@@H](CCCNC(N)=O)C(=O)N2 [Ex. 105] (cyclo(YH[Cit]CRG[dP]RRWCY[Cit]K[dP]P); disulfide 4-11)	0.62 nM	0%	49 µM
